Laboratory results published in patent US9526680B2, “Method for searching for malodor control agent, malodor control agent, and malodor control method” (Kao Corporation, priority 2010, dated 2016).

Target: T1, OR10A6 (Homo sapiens, UniProt Q8NH74)
T1 construct: expressed in transfected cells; host or cells: HEK293
T1 sequence (Q8NH74 1-314): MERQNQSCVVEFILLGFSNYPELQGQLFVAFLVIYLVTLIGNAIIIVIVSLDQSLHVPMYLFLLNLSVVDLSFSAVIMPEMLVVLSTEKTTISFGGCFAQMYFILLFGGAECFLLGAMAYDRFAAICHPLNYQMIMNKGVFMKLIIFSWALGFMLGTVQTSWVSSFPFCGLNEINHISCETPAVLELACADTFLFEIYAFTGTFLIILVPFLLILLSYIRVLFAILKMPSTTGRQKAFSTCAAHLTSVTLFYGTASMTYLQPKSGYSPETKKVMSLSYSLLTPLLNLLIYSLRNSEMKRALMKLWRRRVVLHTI
Test: Luciferase reporter gene assay, OR10A6 expressed in HEK293 cells
Type: cell-based
Details: response to hexanoic acid; test substance added together with hexanoic acid; HEK293
Procedure: Cloning of human olfactory receptors was performed based on the sequence information registered in GenBank, through PCR with human genomic DNA female (G1521: Promega) as a template. Each of the genes amplified through PCR was inserted into a pENTR vector (Invitrogen) according to an instruction manual. Then, the gene-inserted vector was digested with NotI and AscI, and the obtained fragments were inserted into NotI and AscI sites located downstream of the Flag-Rho tag sequence in the pME18S vector.
Each of the 350 types of human olfactory receptors was expressed in HEK293 cells. A reaction solution having a composition shown in Table 2 was prepared on a clean bench, and left to stand for 15 minutes. The solution was dispensed to each well of a 96-well plate (BD). Subsequently, […] cells (100 μL, 3×10^5 cells/cm^2) were seeded in each well and cultured for 24 hours in an incubator at 37° C. and under 5% CO2 conditions.
The olfactory receptor expressed in HEK293 cell was conjugated with cell-intrinsic Gas to activate adenylate cyclase, and thereby the level of intracellular cAMP was increased. For the measurement of the response to odor in this study, the luciferase reporter gene assay was used, in which an increase in the amount of intracellular cAMP was monitored by using the emission value originating from firefly luciferase gene (fluc2P-CRE-hygro) as an indicator. Furthermore, a gene product obtained by fusing renilla luciferase gene in the downstream of CMV promoter (hRluc-CMV) was simultaneously introduced, and this was used as an internal standard for correcting an error in the transgenesis efficiency or the number of cells. The medium was removed from the culture prepared in the above-described section 3) by using a Pipetman, and 75 μl of a solution containing an odor substance (1 mM hexanoic acid or 300 μM nonanoic acid) prepared in CD293 medium (Invitrogen) was added thereto. The cells were cultured for 4 hours in a CO2 incubator, and the luciferase gene was sufficiently expressed in the cells. For the measurement of luciferase activity, the measurement was carried out by using a Dual-Glo™ luciferase assay system (Promega) according to the operation manual of the product. A value calculated by dividing the emission value, derived from a firefly luciferase induced by the stimulation with an odor substance, by the emission value in cells that were not-stimulated with an odor substance, was designated as a fold increase, and used as an index of response intensity.
OR2W1, OR10A6, OR51E1, OR51I2, and OR51L1 were respectively expressed in HEK293 cells by the same method as that used in Example 1, and a luciferase assay was carried out. In the luciferase assay, hexanoic acid was used as the odorous substance, and test substances were added together with hexanoic acid. The response of the olfactory receptors to hexanoic acid was measured, and a decrease in the receptor response to the addition of test substances was evaluated.
The inhibition ratios of the receptor response to test substances were calculated as follows. The emission value (Y) obtained from the cells in which the same receptors were introduced but no odor stimulation was conducted, was subtracted from the emission value derived from firefly luciferase (X) induced by odor stimulation with hexanoic acid alone. Similarly, the emission value (Y) obtained from the cells in which no odor stimulation was conducted, was subtracted from the emission value (Z) caused by stimulation with a mixture of hexanoic acid and a test substance. By the following calculation formula, the inhibitory activity of the test substance to receptor response was calculated based on the increment of the emission value (X−Y) caused by stimulation of hexanoic acid alone. Multiple independent experiments were performed in duplicate, and the average of each experiment was obtained. Inhibition ratio (%)={1−(Z−Y)/(X−Y)}×100

## 2,4,6-trimethyl-3-cyclohexene-1-carboxyaldehyde, 3,5,6-trimethyl-3-cyclohexene-1-carboxyaldehyde [Isocyclocitral]
  Inhibition ratio of OR10A6 response: 1 (Inhibition ratio: 50% or higher)
